Patent US20250170248A1, “SMARCA DEGRADERS AND USES THEREOF” (Kymera Therapeutics, Inc., priority 2021, published 2025)

Key:
Format in all cases: cell-based
SMARCA4 = molecular target: T1, SMARCA4 (Homo sapiens, UniProt P51532); test: SMARCA4 Western blot degradation in MV4-11 cells; details: for Dmax: MV4-11, MV4-11 cells, read-out: SMARCA4 MSD MV411 degradation 24 h: average Dmax %; for Dmax / DC50: 24 h; for DC50 / SMARCA4 MSD MV411 degradation 24 h: average Dmax %: MV4-11 cells; for DC50: read-out: SMARCA4 MSD MV411 degradation 24 h: Mean external-Abs DC50
T1 construct: SMARCA2/SMARCA4 protein degradation selectivity in MV4-11 cells; endogenous in cells; host or cells: MV4-11
Summary of the method: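 Protein levels quantified by LI-COR Western blot (beta-actin loading control) in RIPA lysates of MV4-11 cells after 24 h compound exposure. Degradation reported as DC50, Dmax % at 24 h and SMARCA2 vs SMARCA4 selectivity, each binned into letter codes.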

SMARCA2 [1] = molecular target: T2, SMARCA2 (Homo sapiens, UniProt P51531); test: SMARCA2 Western blot degradation in MV4-11 cells; design: SMARCA2/SMARCA4 protein degradation selectivity in MV4-11 cells; endogenous in cells; host or cells: MV4-11; details: for Dmax: MV4-11, MV4-11 cells, read-out: SMARCA2 MSD MV411 degradation 24 h: average Dmax %; for Dmax / DC50 / SMARCA2 MSD MV411 degradation 24 h: average Dmax %: 24 h; for DC50 / Selectivity in MV411 / SMARCA2 MSD MV411 degradation 24 h: average Dmax %: MV4-11 cells; for DC50: read-out: SMARCA2 MSD MV411 degradation 24 h: Mean external-Abs DC50; for Selectivity in MV411: SMARCA2/4 selectivity
SMARCA2 [2] = molecular target: T2, SMARCA2; test: MSD SMARCA2 degradation in A549 cell line; details: for Dmax: A549, A549 cells; for Dmax / DC50: 24 h; for DC50 / SMARCA2 MSD A549 degradation 24 h: Average Dmax %: A549 cells; for DC50: read-out: SMARCA2 MSD A549 degradation 24 h: Average external-Abs DC50
Description: Example 10. MSD SMARCA2 Degradation in A549 Cell Line
Cells were seeded into 96-well plates (A549 cells: 2×10^4 cells/well/100 ul media) and incubated overnight. The next day, 200 nL compound were added into the intermediate plate with Echo (Labcyte 550) from source plate containing a 3-fold serial dilution from top concentration of 1 mM. The culture medium was changed with 8 0ul of fresh medium and 80 μL of 2× compound solution was added into the well to make a final concentration of 1000 nM, 333.3 nM, 111.1 nM, 37.04 nM, 12.35 nM, 4.115 nM, 1.372 nM, 0.457 nM, 0.152 nM and 0 nM (DMSO). The wells were mixed and then incubated for 24 hours. The media was aspirated from the cultures and 60 ul pre-chilled PIPA lysis buffer (Boston BioProducts BP-115D) with protease/phosphatase inhibitor (Roche 05892791001/Roche 04906837001) was added into the well to lyze the cells for 20 minutes at 4° C. The MSD plate (L15XA) was coated with 40 uL cell lysate and incubated at 4° C. overnight. The next day, the plate was washed three times with TBST (CST #9997S), 150 ul/well. The MSD plates was blocked with 150 ul blocking buffer per well and shaked for 1 hr at RT, 600 rpm. The blocking buffer was 3% Blocker A (MSD, R93BA-4) in TBST. The MSD plate was washed three times with 150 uL/well of TBST and 25 ul/well of detection antibody (Rabbit anti-SMARCA2/BRM antibody, 100 μg/mL, ab223735) was added at final concentration of 1 μg/mL diluted in 1% Blocking buffer and shaken for 1 hour at RT, 600 rpm. The MSD plate was washed three times with 150 ul/well of TBST and 25 ul/well of SULFO-TAG anti-rabbit antibody (MSD, R32AB-1) was added at final concentration of 1 μg/ml diluted in 1% Blocking buffer and shaken for 1 hour at RT, 600 rpm. The MSD plate was washed three times with 150 uL/well of TBST and 150 ul/well of 2× MSD reading buffer diluted from 4× (MSD, R92TC-2) with water was added. Lastly, the MSD instrument was read.
The letter codes for SMARCA2 degradation potency (DC50) include: A (<10 nM), B (10-50 nM), C (>50-100 nM), and D (>100 nM). The letter codes for the percentage of SMARCA degradation after 24 hours (Dmax %) include: A (>90% degradation), B (>70-90% degradation), C (50-70% degradation), and D (<50% degradation).

T2 sequence (P51531 whole entry): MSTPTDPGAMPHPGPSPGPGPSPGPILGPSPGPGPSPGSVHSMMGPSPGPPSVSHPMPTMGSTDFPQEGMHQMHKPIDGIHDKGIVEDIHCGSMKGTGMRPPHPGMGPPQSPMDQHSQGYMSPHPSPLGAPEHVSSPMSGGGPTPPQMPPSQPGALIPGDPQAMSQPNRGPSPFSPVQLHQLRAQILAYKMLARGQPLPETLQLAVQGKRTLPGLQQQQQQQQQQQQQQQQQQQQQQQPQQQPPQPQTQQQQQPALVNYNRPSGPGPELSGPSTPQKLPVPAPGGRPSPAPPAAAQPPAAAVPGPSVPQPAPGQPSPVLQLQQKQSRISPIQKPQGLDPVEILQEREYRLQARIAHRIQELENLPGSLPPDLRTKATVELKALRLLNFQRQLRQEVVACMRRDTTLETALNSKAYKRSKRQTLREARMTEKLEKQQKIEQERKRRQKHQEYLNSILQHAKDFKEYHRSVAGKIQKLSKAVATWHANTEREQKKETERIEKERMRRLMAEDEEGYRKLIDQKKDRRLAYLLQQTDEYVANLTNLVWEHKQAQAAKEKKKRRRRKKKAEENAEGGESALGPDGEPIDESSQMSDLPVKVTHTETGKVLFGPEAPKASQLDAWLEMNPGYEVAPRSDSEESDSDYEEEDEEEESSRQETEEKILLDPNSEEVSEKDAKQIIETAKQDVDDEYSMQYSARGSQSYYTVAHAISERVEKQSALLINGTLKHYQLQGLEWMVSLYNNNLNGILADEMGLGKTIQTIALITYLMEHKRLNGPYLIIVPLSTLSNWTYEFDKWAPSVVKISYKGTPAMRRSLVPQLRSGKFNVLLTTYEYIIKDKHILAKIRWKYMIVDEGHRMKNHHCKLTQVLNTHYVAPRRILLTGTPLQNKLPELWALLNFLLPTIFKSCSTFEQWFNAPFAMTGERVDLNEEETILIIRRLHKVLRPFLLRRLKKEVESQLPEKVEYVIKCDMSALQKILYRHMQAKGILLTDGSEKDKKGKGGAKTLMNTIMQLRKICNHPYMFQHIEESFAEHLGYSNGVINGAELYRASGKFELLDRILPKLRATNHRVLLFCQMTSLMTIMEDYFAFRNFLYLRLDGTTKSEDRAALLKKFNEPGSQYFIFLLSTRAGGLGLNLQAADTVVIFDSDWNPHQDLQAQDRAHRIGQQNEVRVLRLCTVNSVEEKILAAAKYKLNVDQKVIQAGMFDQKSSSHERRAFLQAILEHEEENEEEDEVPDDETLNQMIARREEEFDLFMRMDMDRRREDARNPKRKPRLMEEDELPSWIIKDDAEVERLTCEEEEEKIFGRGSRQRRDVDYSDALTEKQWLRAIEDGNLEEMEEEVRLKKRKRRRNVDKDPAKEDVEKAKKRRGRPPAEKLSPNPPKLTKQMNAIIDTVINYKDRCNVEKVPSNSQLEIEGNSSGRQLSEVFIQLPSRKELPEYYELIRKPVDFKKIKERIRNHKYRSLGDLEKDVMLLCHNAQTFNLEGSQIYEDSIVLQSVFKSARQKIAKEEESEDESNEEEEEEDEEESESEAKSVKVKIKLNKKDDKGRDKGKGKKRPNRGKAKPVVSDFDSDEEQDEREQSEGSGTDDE
T1 sequence (P51532 whole entry): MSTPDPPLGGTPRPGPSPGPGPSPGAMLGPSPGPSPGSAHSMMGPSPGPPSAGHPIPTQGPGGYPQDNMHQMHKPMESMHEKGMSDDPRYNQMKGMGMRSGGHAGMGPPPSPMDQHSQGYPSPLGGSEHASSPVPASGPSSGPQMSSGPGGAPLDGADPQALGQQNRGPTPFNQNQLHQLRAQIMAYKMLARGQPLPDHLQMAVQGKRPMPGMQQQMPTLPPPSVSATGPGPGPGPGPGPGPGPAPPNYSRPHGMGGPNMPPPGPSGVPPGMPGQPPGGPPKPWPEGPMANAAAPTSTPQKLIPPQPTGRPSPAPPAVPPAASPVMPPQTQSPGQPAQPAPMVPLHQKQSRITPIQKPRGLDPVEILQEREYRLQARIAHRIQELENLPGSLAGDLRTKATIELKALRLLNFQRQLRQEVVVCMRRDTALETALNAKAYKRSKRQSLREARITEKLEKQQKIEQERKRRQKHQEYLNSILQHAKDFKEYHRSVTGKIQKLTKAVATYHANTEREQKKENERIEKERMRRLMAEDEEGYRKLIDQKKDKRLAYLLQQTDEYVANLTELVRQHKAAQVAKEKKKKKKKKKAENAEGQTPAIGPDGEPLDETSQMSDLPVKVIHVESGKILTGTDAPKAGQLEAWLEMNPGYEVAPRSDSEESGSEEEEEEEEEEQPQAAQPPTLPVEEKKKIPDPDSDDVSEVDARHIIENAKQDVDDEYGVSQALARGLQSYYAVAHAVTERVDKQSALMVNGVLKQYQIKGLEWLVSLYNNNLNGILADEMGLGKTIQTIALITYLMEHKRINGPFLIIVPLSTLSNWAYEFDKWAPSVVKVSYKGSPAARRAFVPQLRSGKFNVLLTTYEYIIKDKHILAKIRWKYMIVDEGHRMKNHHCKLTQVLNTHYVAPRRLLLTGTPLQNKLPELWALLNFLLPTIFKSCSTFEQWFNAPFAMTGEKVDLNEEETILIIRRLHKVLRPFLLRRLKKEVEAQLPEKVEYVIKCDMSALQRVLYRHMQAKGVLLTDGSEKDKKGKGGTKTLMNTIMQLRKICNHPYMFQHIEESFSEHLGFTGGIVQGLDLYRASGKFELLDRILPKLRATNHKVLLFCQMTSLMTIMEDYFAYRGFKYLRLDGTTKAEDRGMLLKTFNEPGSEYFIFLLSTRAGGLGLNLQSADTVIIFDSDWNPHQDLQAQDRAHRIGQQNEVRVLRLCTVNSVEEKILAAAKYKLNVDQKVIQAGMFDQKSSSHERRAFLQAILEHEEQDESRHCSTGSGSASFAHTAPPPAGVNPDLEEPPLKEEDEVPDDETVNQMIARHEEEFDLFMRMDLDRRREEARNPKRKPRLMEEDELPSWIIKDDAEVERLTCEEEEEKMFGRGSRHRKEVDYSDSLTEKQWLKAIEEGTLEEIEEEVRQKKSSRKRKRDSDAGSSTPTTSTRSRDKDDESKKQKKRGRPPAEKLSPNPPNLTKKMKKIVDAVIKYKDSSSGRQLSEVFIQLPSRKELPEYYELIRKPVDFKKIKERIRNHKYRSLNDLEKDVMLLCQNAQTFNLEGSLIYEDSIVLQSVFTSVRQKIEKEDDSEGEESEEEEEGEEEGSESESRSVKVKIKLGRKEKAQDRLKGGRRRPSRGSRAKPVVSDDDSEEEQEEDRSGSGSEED

Row | SMILES | Dmax (SMARCA4) [%] | DC50 (SMARCA4) [nM] | Dmax (SMARCA2 [1]) [%] | DC50 (SMARCA2 [1]) [nM] | Selectivity in MV411 (SMARCA2 [1]) | Dmax (SMARCA2 [2]) [%] | DC50 (SMARCA2 [2]) [nM] | SMARCA4 MSD MV411 degradation 24 h: average Dmax % (SMARCA4) | SMARCA2 MSD MV411 degradation 24 h: average Dmax % (SMARCA2 [1]) | SMARCA2 MSD A549 degradation 24 h: Average Dmax % (SMARCA2 [2])
1 | Cc1ncsc1-c1ccc(CNC(=O)[C@@H]2C[C@@H](O)CN2C(=O)C(c2cc(N3CC4(CC(N5CCC(c6cnc(N7CCc8[nH]c9nnc(-c%10ccccc%10O)cc9c8[C@H]7C)nc6)CC5)C4)C3)no2)C(C)C)cc1 (single isomer, unassigned) [I-10] | > 90 | 1 to 10 | > 90 | < 1 | D (D (<10 fold)) | > 90 | 10 to 50 |  |  | 
2 | Cc1ncsc1-c1ccc(CNC(=O)[C@@H]2C[C@@H](O)CN2C(=O)C(c2cc(N3CCC4(CC3)CC(N3CCC(c5cnc(N6CCc7[nH]c8nnc(-c9ccccc9O)cc8c7[C@@H]6C)nc5)CC3)C4)no2)C(C)C)cc1 (single isomer, unassigned) [I-12] | > 90 | 10 to 100 | 70 to 90 | 10 to 100 | D (D (<10 fold)) | 70 to 90 | 50 to 100 |  |  | 
3 | Cc1ncsc1-c1ccc(CNC(=O)[C@@H]2C[C@@H](O)CN2C(=O)C(c2cc(N3CC4(CCC(N5CCC(c6cnc(N7CCc8[nH]c9nnc(-c%10ccccc%10O)cc9c8[C@H]7C)nc6)CC5)CC4)C3)no2)C(C)C)cc1 (single isomer, unassigned) [I-14] | > 90 | 1 to 10 | > 90 | < 1 | D (D (<10 fold)) | 70 to 90 | < 10 |  |  | 
4 | Cc1ncsc1-c1ccc(CNC(=O)[C@@H]2C[C@@H](O)CN2C(=O)C(c2cc(OC[C@H]3CC[C@H](N4CCC(c5cnc(N6CCc7[nH]c8nnc(-c9ccccc9O)cc8c7[C@@H]6C)nc5)CC4)CC3)no2)C(C)C)cc1 (single isomer, unassigned) [I-15] | > 90 | 10 to 100 | > 90 | 1 to 10 | C (C (10-100 fold)) | > 90 | 10 to 50 |  |  | 
5 | Cc1ncsc1-c1ccc(CNC(=O)[C@@H]2C[C@@H](O)CN2C(=O)C(c2cc(OC[C@H]3CC[C@@H](N4CCC(c5cnc(N6CCc7[nH]c8nnc(-c9ccccc9O)cc8c7[C@@H]6C)nc5)CC4)CC3)no2)C(C)C)cc1 (single isomer, unassigned) [I-16] | 70 to 90 | 10 to 100 | > 90 | 1 to 10 | D (D (<10 fold)) | 70 to 90 | 50 to 100 |  |  | 
6 | C[C@H](NC(=O)[C@@H]1C[C@@H](O)CN1C(=O)[C@@H](NC(=O)[C@H]1CCC2(CC1)C[C@H](N1CCC(c3cnc(N4CCN5c6cc(-c7ccccc7O)nnc6NC[C@H]5C4)nc3)CC1)C2)C(C)(C)C)c1ccc(-c2ccnn2C)cc1 (single isomer, unassigned) [I-21] | > 90 | 1 to 10 | > 90 | < 1 | C (C (10-100 fold)) | > 90 | 10 to 50 |  |  | 
7 | C[C@H](NC(=O)[C@@H]1C[C@@H](O)CN1C(=O)[C@@H](NC(=O)[C@H]1CCC2(CC1)C[C@H](N1CCC(c3cnc(N4CCN5c6cc(-c7ccccc7O)nnc6NC[C@H]5C4)nc3)CC1)C2)C(C)(C)C)c1ccc(-c2ccnn2C)cc1 (single isomer, unassigned) [I-22] |  | 10 to 100 |  | < 1 | C (C (10-100 fold)) |  | 10 to 50 | B (B (>70-90% degradation)) | A (A (>90% degradation)) | A (A (>90% degradation))
8 | Cc1ncsc1-c1ccc(CNC(=O)[C@@H]2C[C@@H](O)CN2C(=O)[C@@H](NC(=O)[C@H]2CC3(C2)C[C@H](N2CCC(c4ccnc(N5CCN6c7cc(-c8ccccc8O)nnc7NC[C@H]6C5)n4)CC2)C3)C(C)(C)C)cc1 (single isomer, unassigned) [I-27] |  | > 100 |  | 1 to 10 | A (A (>500 fold)) |  | 10 to 50 | D (D (<50% degradation)) | A (A (>90% degradation)) | B (B (>70-90% degradation))
9 | Cc1ncsc1-c1ccc(CNC(=O)[C@@H]2C[C@@H](O)CN2C(=O)[C@@H](NC(=O)[C@H]2CC3(C2)C[C@H](N2CCC(N4CCC(c5ccc6[nH]c7nnc(-c8ccccc8O)cc7c6c5)CC4)CC2)C3)C(C)(C)C)cc1 (single isomer, unassigned) [I-28] | < 50 | > 100 | 50 to 70 | 10 to 100 | C (C (10-100 fold)) | 70 to 90 | 50 to 100 |  |  | 
10 | Cc1ncsc1-c1ccc(CNC(=O)[C@@H]2C[C@@H](O)CN2C(=O)[C@@H](NC(=O)[C@H]2CC3(C2)C[C@H](N2CCC(N4CCC(c5ccc6[nH]c7nnc(-c8ccccc8O)cc7c6c5)CC4)CC2)C3)C(C)(C)C)cc1 (single isomer, unassigned) [I-29] |  | > 100 |  | 10 to 100 | B (B (>100-500 fold)) |  | > 100 | D (D (<50% degradation)) | C (C (50-70% degradation)) | C (C (50-70% degradation))
11 | Cc1ncsc1-c1ccc(CNC(=O)[C@@H]2C[C@@H](O)CN2C(=O)[C@@H](NC(=O)C2(F)CC2)C(C)(C)C)c(O[C@H]2CC[C@H](N3CCC(c4cnc(N5CCc6[nH]c7nnc(-c8ccccc8O)cc7c6[C@H]5C)nc4)CC3)CC2)c1 (single isomer, unassigned) [I-30] | > 90 | < 1 | > 90 | < 1 | D (D (<10 fold)) | > 90 | < 10 |  |  | 
12 | Cc1ncsc1-c1ccc(CNC(=O)[C@@H]2C[C@@H](O)CN2C(=O)[C@@H](NC(=O)C2(F)CC2)C(C)(C)C)c(O[C@H]2CC[C@@H](N3CCC(c4cnc(N5CCc6[nH]c7nnc(-c8ccccc8O)cc7c6[C@H]5C)nc4)CC3)CC2)c1 (single isomer, unassigned) [I-31] | 50 to 70 | > 100 | 70 to 90 | 10 to 100 | B (B (>100-500 fold)) | > 90 | 50 to 100 |  |  | 
13 | Cc1ncsc1-c1ccc(CNC(=O)[C@@H]2C[C@@H](O)CN2C(=O)[C@@H](NC(=O)C2(F)CC2)C(C)(C)C)c(OCCN2CCC(c3cnc(N4CCN5c6cc(-c7ccccc7O)nnc6NC[C@H]5C4)nc3)CC2)c1 (single isomer, unassigned) [I-32] | > 90 | 1 to 10 | > 90 | < 1 | C (C (10-100 fold)) | > 90 | < 10 |  |  | 
14 | Cc1ncsc1-c1ccc(CNC(=O)[C@@H]2C[C@@H](O)CN2C(=O)[C@@H](NC(=O)C2(F)CC2)C(C)(C)C)c(O[C@H]2CC[C@H](N3CCC(c4cnc(N5CCc6[nH]c7nnc(-c8ccccc8O)cc7c6[C@@H]5C)nc4)CC3)CC2)c1 (single isomer, unassigned) [I-33] | < 50 | > 100 | 50 to 70 | 10 to 100 | C (C (10-100 fold)) | 50 to 70 | > 100 |  |  | 
